Laboratory results reported in patent US6872706B2, “Glucopyranosyloxybenzylbenzene derivatives and medicinal compositions containing the same” (Kissei Pharmaceutical Co., Ltd., priority 2000, dated 2005).

Columns and labels:
human SGLT2 = target: T1, human SGLT2 (Homo sapiens, UniProt P31639, I433V); assay: Assay for inhibitory effect on human SGLT2 activity (uptake of methyl-α-D-glucopyranoside in COS-7 cells expressing transiently human SGLT2); assay type: cell-based; conditions: inhibition of methyl-α-D-(U-14C)glucopyranoside uptake, COS-7 cells expressing transiently human SGLT2, 37° C., 2 hours
T1 construct: expressed in transfected cells; host or cells: COS-7 cells (RIKEN CELL BANK RCB0539), transient, electroporation
T1 sequence (P31639 1-672 I433V): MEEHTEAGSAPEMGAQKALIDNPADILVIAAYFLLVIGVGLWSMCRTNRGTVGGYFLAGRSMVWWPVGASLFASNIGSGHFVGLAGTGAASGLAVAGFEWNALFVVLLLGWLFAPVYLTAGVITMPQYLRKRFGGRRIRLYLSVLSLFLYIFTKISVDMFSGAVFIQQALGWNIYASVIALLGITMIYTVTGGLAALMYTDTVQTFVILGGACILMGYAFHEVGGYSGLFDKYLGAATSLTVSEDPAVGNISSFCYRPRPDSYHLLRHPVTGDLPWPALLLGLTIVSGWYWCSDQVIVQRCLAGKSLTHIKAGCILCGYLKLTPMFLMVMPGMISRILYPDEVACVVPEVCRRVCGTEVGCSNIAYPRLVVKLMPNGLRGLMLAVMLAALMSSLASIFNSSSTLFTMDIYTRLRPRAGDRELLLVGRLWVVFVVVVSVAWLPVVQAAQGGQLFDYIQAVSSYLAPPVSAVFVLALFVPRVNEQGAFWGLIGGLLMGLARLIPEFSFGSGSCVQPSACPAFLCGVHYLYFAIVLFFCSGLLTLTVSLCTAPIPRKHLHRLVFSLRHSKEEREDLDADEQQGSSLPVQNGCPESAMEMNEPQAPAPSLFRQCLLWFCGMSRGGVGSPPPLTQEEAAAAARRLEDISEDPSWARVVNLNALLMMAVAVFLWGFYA
Protocol: Assay for Inhibitory Effect on Human SGLT2 Activity
1) Construction of the Plasmid Vector Expressing Human SGLT2
Preparation of the cDNA library for PCR amplification was performed by reverse transcription of a total RNA deprived from human kidney (Ori gene) with oligo dT as the primer, using […] Preamplification System (Gibco-BRL: LIFE TECHNOLOGIES). […] The amplified DNA fragment was ligated into pCR-Blunt (Invitrogen), a vector for cloning, according to standard method of the kit. The competent cell, Escherichia coli HB101 (Toyobo), was transformed according to usual method and then selection of the transformants was performed on the LB agar medium containing 50 μg/mL of kanamycin. After the plasmid DNA was extracted and purified from the one of the transformants, amplifying of the DNA fragment coding for human SGLT2 was performed by the Pfu DNA Polymerase (Stratagene)-used PCR reaction, in which the following oligo nucleotides 0714F and 0715R, presented as Sequence Numbers 3 and 4 respectively, were used as the primers. The amplified DNA fragment was digested with restriction enzymes, Xho I and Hind III, and then purified with Wizard Purification System (Promega). This purified DNA fragment was inserted at the corresponding multi-cloning sites of pcDNA3.1 (−) Myc/His-B (Invitrogen), a vector for expressing of fusion protein. The competent cell, Escherichia coli HB101 (Toyobo), was transformed according to usual method and then selection of the transformant was performed on the LB agar medium containing 100 μg/mL of ampicillin. After the plasmid DNA was extracted and purified from this transformant, the base sequence of the DNA fragment inserted at the multi-cloning sites of pcDNA3.1 (−) Myc/His-B was analyzed. […] This plasmid vector expressing human SGLT2 in which the peptide presented as Sequence Number 5 is fused to the carboxyl terminal alanine residue was designated KL29.
2) Preparation of the Cells Expressing Transiently Human SGLT2
KL29, the plasmid coding human SGLT2, was transfected into COS-7 cells (RIKEN CELL BANK RCB0539) by electroporation. Electroporation was performed with GENE PULSER II (Bio-Rad Laboratories) under the condition: 0.290 kV, 975 μF, 2×10^6 cells of COS-7 cell and 20 μg of KL29 in 500 μL of OPTI-MEM I medium (Gibco-BRL: LIFE TECHNOLOGIES) in the 0.4 cm type cuvette. After the gene transfer, the cells were harvested by centrifugation and resuspended with OPTI-MEM I medium (1 mL/cuvette). To each well in 96-wells plate, 125 μL of this cell suspension was added. After overnight culture at 37° C. under 5% CO2, 125 μL of DMEM medium which is containing 10% of fetal bovine serum (Sanko Jyunyaku), 100 units/mL sodium penicillin G (Gibco-BRL: LIFE TECHNOLOGIES) and 100 μg/mL streptomycin sulfate (Gibco-BRL: LIFE TECHNOLOGIES) was added to each well. After a culture until the following day, these cells were used for the measurement of the inhibitory activity against the uptake of methyl-α-D-glucopyranoside.
3) Measurement of the Inhibitory Activity Against the Uptake of Methyl-α-D-Glucopyranoside
After a test compound was dissolved in dimethyl sulfoxide and diluted with the uptake buffer (a pH 7.4 buffer containing 140 mM sodium chloride, 2 mM potassium chloride, 1 mM calcium chloride, 1 mM magnesium chloride, 5 mM methyl-α-D-glucopyranoside, 10 mM 2-[4-(2-hydroxyethyl)-1-piperazinyl]ethane sulfonic acid and 5 mM tris (hydroxymethyl) aminomethane), each diluent was used as test sample for measurement of the inhibitory activity.

Acute toxicity test = assay type: in vivo; conditions: male ICR mice, oral 600 mg/kg, until 24 hours after the administration, 5 animals in each group
Protocol: Four weeks old male ICR mice (CLEA JAPAN, INC. 22-28 g, 5 animals in each group) were fasted for 4 hours, and 60 mg/mL of a suspension of a test compound in 0.5% sodium carboxymethylcellulose solution was orally administered at the dose of 10 mL/kg(600 mg/kg).

[1] = Assay for the facilitatory effect on urinary glucose excretion; assay type: in vivo; conditions: non-fasted male SD rats, oral, urine collected 24 hours
Protocol: Assay for the Facilitatory Effect on Urinary Glucose Excretion
As experimental animal, non-fasted SD rats (SLC. Inc., male, 8 weeks of age, 270-320 g) were used. A test compound was suspended in 0.5% sodium carboxymethylcellulose solution and 0.3, 1 and 3 mg/mL suspension were prepared. Adler the body weights of rats were measured, the test suspension was orally administered at the dose of 10 mL/kg (3, 10 and 30 mg/kg). For the control, just only 0.5% sodium carboxymethylcellulose solution was orally administered at the dose of 10 mL/kg. The oral administration was performed with gastric tube for rat and 2.5 mL syringe. The head count in one group was 5 or 6. Collection of urine was performed in metabolic cage after the oral administration was finished. The sampling time for collection of urine was 24 hours after the oral administration. After collection of urine was finished, the urine volume was recorded and the urinary glucose concentration was measured. The glucose concentration was measured with a kit for laboratory test: Glucose B-Test WAKO (Wako Pure Chemical Industries, Ltd.). The amount of urinary glucose excretion in 24 hours per 200 g of body weight was calculated from urine volume, urinary glucose concentration and body weight.

CC(C)Oc1ccc(Cc2ccccc2O[C@@H]2O[C@H](CO)[C@@H](O)[C@H](O)[C@H]2O)cc1 [Reference Example 16, 2-(4-Isopropoxybenzy)phenyl β-D-Glucopyranoside] showed an IC50 (human SGLT2) of 370 nM.

CCSc1ccc(Cc2ccccc2O[C@@H]2O[C@H](CO)[C@@H](O)[C@H](O)[C@H]2O)cc1 [Reference Example 17, 2-(4-Ethylthiobenzyl)phenyl β-D-glucopyranoside] showed an IC50 (human SGLT2) of 110 nM.

Work on CC(C)Cc1ccc(Cc2ccccc2O[C@@H]2O[C@H](CO)[C@@H](O)[C@H](O)[C@H]2O)cc1 [Reference Example 14, 2-(4-Isobutylbenzyl)phenyl β-D-glucopyranoside] yielded an IC50 (human SGLT2) of 500 nM.

Work on CCc1ccc(Cc2ccccc2O[C@@H]2O[C@H](CO)[C@@H](O)[C@H](O)[C@H]2O)cc1 [Reference Example 13, 2-(4-Ethylbenzyl)phenyl β-D-glucopyranoside] yielded an IC50 (human SGLT2) of 140 nM.

In the case of CCOC(=O)OC[C@H]1O[C@@H](Oc2ccccc2Cc2ccc(OC)cc2)[C@H](O)[C@@H](O)[C@@H]1O [Example 1, 2-(4-Methoxybenzyl)phenyl 6-O-ethoxycarbonyl-β-D-glucopyranoside], the Death number (Acute toxicity test) is reported as 0/5, the “Amount of Urinary Glucose Excretion” value ([1]; dose 3 mg/kg) is reported as 52 mg/24 hours · 200 g body weight and the “Amount of Urinary Glucose Excretion” value ([1]; dose 10 mg/kg) is reported as 239 mg/24 hours · 200 g body weight. For the same compound, the “Amount of Urinary Glucose Excretion” value ([1]; dose 30 mg/kg) was 513 mg/24 hours · 200 g body weight.

CCOc1ccc(Cc2ccccc2O[C@@H]2O[C@H](CO)[C@@H](O)[C@H](O)[C@H]2O)cc1 [Reference Example 15, 2-(4-Ethoxybenzyl)phenyl β-D-glucopyranoside] gave an IC50 (human SGLT2) of 330 nM.

In the case of COc1ccc(Cc2ccccc2O[C@@H]2O[C@H](CO)[C@@H](O)[C@H](O)[C@H]2O)cc1 [Reference Example 11, 2-(4-Methoxybenzyl)phenyl β-D-glucopyranoside], the IC50 (human SGLT2) is reported as 350 nM.
